# Data as given in paper PMC5218480 (PLoS ONE, 2017).
# Tested on: MV-4-11 cells
# Assay: Gene expression microarray analysis (Affymetrix PrimeView) and GSEA
# Type: cell-based, human
# Design: RFU PODN (11730768_x_at) / Fold change /veh PODN (11730768_x_at) / RFU LINC00158 (11744669_a_at) / Fold change /veh LINC00158 (11744669_a_at) / RFU DUSP10 (11751237_a_at) / Fold change /veh DUSP10 (11751237_a_at) / RFU ID3 (11757404_x_at) / Fold change /veh ID3 (11757404_x_at) / RFU PLEKHG5 (11737974_s_at) / Fold change /veh PLEKHG5 (11737974_s_at) / RFU LRRC4B (11730491_at) / Fold change /veh LRRC4B (11730491_at) / RFU GIMAP4 (11747438_a_at) / Fold change /veh GIMAP4 (11747438_a_at) / RFU KRT8 (11758183_x_at) / Fold change /veh KRT8 (11758183_x_at) / RFU CNN1 (11734310_a_at) / Fold change /veh CNN1 (11734310_a_at) / RFU VPS37D (11726825_at) / Fold change /veh VPS37D (11726825_at) / RFU C10orf10 (11716522_x_at) / Fold change /veh C10orf10 (11716522_x_at) / RFU KIR2DL2 /// KIR2DL4 /// KIR2DL5A /// KIR2DL5B /// KIR2DS1 /// KIR2DS2 /// KIR2DS3 /// KIR2DS4 /// KIR3DL3 /// KIR3DL3 /// KIR3DS1 (11738374_at) / Fold change /veh KIR2DL2 /// KIR2DL4 /// KIR2DL5A /// KIR2DL5B /// KIR2DS1 /// KIR2DS2 /// KIR2DS3 /// KIR2DS4 /// KIR3DL3 /// KIR3DL3 /// KIR3DS1 (11738374_at) / RFU C1QL1 (11718748_at) / Fold change /veh C1QL1 (11718748_at) / RFU TMPRSS4 (11747572_a_at) / Fold change /veh TMPRSS4 (11747572_a_at) / RFU HAMP (11756126_x_at) / Fold change /veh HAMP (11756126_x_at) / RFU RNFT2 (11725882_a_at) / Fold change /veh RNFT2 (11725882_a_at) / RFU NR4A2 (11747474_a_at) / Fold change /veh NR4A2 (11747474_a_at) / RFU ABCC12 (11746883_a_at) / Fold change /veh ABCC12 (11746883_a_at) / RFU TMEM136 (11760407_x_at) / Fold change /veh TMEM136 (11760407_x_at) / RFU CLDN22 /// WWC2 (11732394_at) / Fold change /veh CLDN22 /// WWC2 (11732394_at) / RFU HLA-DPB1 (11760878_x_at) / Fold change /veh HLA-DPB1 (11760878_x_at) / RFU SPINT1 (11716480_a_at) / Fold change /veh SPINT1 (11716480_a_at) / RFU GAP43 (11754022_s_at) / Fold change /veh GAP43 (11754022_s_at) / RFU A4GNT (11735810_at) / Fold change /veh A4GNT (11735810_at) / RFU PRB3 (11715151_x_at) / Fold change /veh PRB3 (11715151_x_at) / RFU TUBB4B (11761932_at) / Fold change /veh TUBB4B (11761932_at) / RFU CAPN14 (11732068_a_at) / Fold change /veh CAPN14 (11732068_a_at) / RFU TMCC2 (11721928_a_at) / Fold change /veh TMCC2 (11721928_a_at) / RFU IRGQ (11745062_a_at) / Fold change /veh IRGQ (11745062_a_at) / RFU FAM174B (11720279_a_at) / Fold change /veh FAM174B (11720279_a_at) / RFU TMPRSS4 (11748680_a_at) / Fold change /veh TMPRSS4 (11748680_a_at) / RFU FAM212B (11763350_a_at) / Fold change /veh FAM212B (11763350_a_at) / RFU PLEKHG5 (11743358_a_at) / Fold change /veh PLEKHG5 (11743358_a_at) / RFU ZSCAN30 (11745921_a_at) / Fold change /veh ZSCAN30 (11745921_a_at) / RFU CMKLR1 (11741424_a_at) / Fold change /veh CMKLR1 (11741424_a_at) / RFU LOC101060620 /// MAPK8IP1 (11723275_at) / Fold change /veh LOC101060620 /// MAPK8IP1 (11723275_at) / RFU SPTSSB (11747773_x_at) / Fold change /veh SPTSSB (11747773_x_at) / RFU PRSS12 (11739890_at) / Fold change /veh PRSS12 (11739890_at) / RFU BIN1 (11741810_x_at) / Fold change /veh BIN1 (11741810_x_at) / RFU WNT11 (11732464_a_at) / Fold change /veh WNT11 (11732464_a_at) / RFU C10orf10 (11716521_a_at) / Fold change /veh C10orf10 (11716521_a_at) / RFU C5orf56 (11738089_at) / Fold change /veh C5orf56 (11738089_at) / RFU CYB561 (11721691_x_at) / Fold change /veh CYB561 (11721691_x_at) / RFU ANKRD19P (11752326_a_at) / Fold change /veh ANKRD19P (11752326_a_at) / RFU OR2T12 /// OR2T33 /// OR2T8 (11738714_s_at) / Fold change /veh OR2T12 /// OR2T33 /// OR2T8 (11738714_s_at) / RFU VCAN (11748164_a_at) / Fold change /veh VCAN (11748164_a_at) / RFU JSRP1 (11732532_at) / Fold change /veh JSRP1 (11732532_at) / RFU KRTAP10-11 (11738290_x_at) / Fold change /veh KRTAP10-11 (11738290_x_at) / RFU MYO3A (11730013_a_at) / Fold change /veh MYO3A (11730013_a_at) / RFU EBF3 (11725865_a_at) / Fold change /veh EBF3 (11725865_a_at) / RFU CAMK2N1 (11719241_x_at) / Fold change /veh CAMK2N1 (11719241_x_at) / RFU C5orf56 (11738088_a_at) / Fold change /veh C5orf56 (11738088_a_at) / RFU OLFML3 (11715873_a_at) / Fold change /veh OLFML3 (11715873_a_at) / RFU LOC100653217 /// NTM (11731650_a_at) / Fold change /veh LOC100653217 /// NTM (11731650_a_at) / RFU MAPK11 (11762145_a_at) / Fold change /veh MAPK11 (11762145_a_at) / RFU FIZ1 (11724087_x_at) / Fold change /veh FIZ1 (11724087_x_at) / RFU OASL (11726364_x_at) / Fold change /veh OASL (11726364_x_at) / RFU SOX15 (11748057_x_at) / Fold change /veh SOX15 (11748057_x_at) / RFU CD79A (11719716_a_at) / Fold change /veh CD79A (11719716_a_at) / RFU HIST1H1D (11736915_at) / Fold change /veh HIST1H1D (11736915_at) / RFU CASKIN2 (11723855_a_at) / Fold change /veh CASKIN2 (11723855_a_at) / RFU LOC730098 (11760151_x_at) / Fold change /veh LOC730098 (11760151_x_at) / RFU OR4N2 (11742367_at) / Fold change /veh OR4N2 (11742367_at) / RFU PRRT2 (11749266_a_at) / Fold change /veh PRRT2 (11749266_a_at) / RFU SNX32 (11753110_a_at) / Fold change /veh SNX32 (11753110_a_at) / RFU CDHR5 (11726645_a_at) / Fold change /veh CDHR5 (11726645_a_at) / RFU RCAN1 (11760418_a_at) / Fold change /veh RCAN1 (11760418_a_at) / RFU FAM167A (11723789_a_at) / Fold change /veh FAM167A (11723789_a_at) / RFU FAM26E (11764081_at) / Fold change /veh FAM26E (11764081_at) / RFU ISYNA1 (11749810_s_at) / Fold change /veh ISYNA1 (11749810_s_at) / RFU ACY1 (11761880_at) / Fold change /veh ACY1 (11761880_at) / RFU 11764098_at / Fold change /veh 11764098_at / RFU SAMD14 (11745864_x_at) / Fold change /veh SAMD14 (11745864_x_at) / RFU NPB (11741838_a_at) / Fold change /veh NPB (11741838_a_at) / RFU TMPRSS6 (11731388_a_at) / Fold change /veh TMPRSS6 (11731388_a_at) / RFU KRTAP10-2 (11738614_at) / Fold change /veh KRTAP10-2 (11738614_at) / RFU ARHGAP8 /// PRR5-ARHGAP8 (11727945_x_at) / Fold change /veh ARHGAP8 /// PRR5-ARHGAP8 (11727945_x_at) / RFU KRTAP5-7 /// NADSYN1 (11734609_at) / Fold change /veh KRTAP5-7 /// NADSYN1 (11734609_at) / RFU RASL12 (11751679_a_at) / Fold change /veh RASL12 (11751679_a_at) / RFU CDKN2B (11736163_a_at) / Fold change /veh CDKN2B (11736163_a_at) / RFU PRF1 (11729649_at) / Fold change /veh PRF1 (11729649_at) / RFU, ZNF638 /// ZNF638-IT1 / Fold change vs veh, ZNF638 /// ZNF638-IT1 / RFU, PANK3 / Fold change vs veh, PANK3 / RFU, SH3YL1 / Fold change vs veh, SH3YL1 / RFU, ZEB2 / Fold change vs veh, ZEB2 / RFU, NRIP1 / Fold change vs veh, NRIP1 / RFU, PTTG1IP / Fold change vs veh, PTTG1IP / RFU, CAPN2 / Fold change vs veh, CAPN2 / RFU, MED14 / Fold change vs veh, MED14 / RFU, SNORA58 / Fold change vs veh, SNORA58 / RFU, C1orf63 / Fold change vs veh, C1orf63 / RFU, LRRFIP1 / Fold change vs veh, LRRFIP1 / RFU, NDUFAF7 / Fold change vs veh, NDUFAF7 / RFU, SLC12A2 / Fold change vs veh, SLC12A2 / RFU, IBTK / Fold change vs veh, IBTK / RFU, ESF1 / Fold change vs veh, ESF1 / Fold change vs veh, TMEM50B / RFU, TAOK1 / Fold change vs veh, TAOK1 / RFU, ACBD3 / Fold change vs veh, ACBD3 / RFU, TMA16 / Fold change vs veh, TMA16 / RFU, RWDD3 / Fold change vs veh, RWDD3 / RFU, BCAT1 / Fold change vs veh, BCAT1 / RFU, EDEM3 / Fold change vs veh, EDEM3 / RFU, TMEM33 / Fold change vs veh, TMEM33 / RFU, WDR75 / Fold change vs veh, WDR75 / RFU, AHCTF1 / Fold change vs veh, AHCTF1 / RFU, TFRC / Fold change vs veh, TFRC / RFU, ZDHHC17 / Fold change vs veh, ZDHHC17 / RFU, NOM1 / Fold change vs veh, NOM1 / RFU, ARL8B / Fold change vs veh, ARL8B / RFU, ZBTB11 / Fold change vs veh, ZBTB11 / RFU, TAMM41 / Fold change vs veh, TAMM41 / RFU, KIAA1704 /// LOC100996395 / Fold change vs veh, KIAA1704 /// LOC100996395 / RFU, ING1 / Fold change vs veh, ING1 / RFU, TRMT61B / Fold change vs veh, TRMT61B / RFU, FUBP3 / Fold change vs veh, FUBP3 / RFU, TP53 / Fold change vs veh, TP53 / RFU, TNKS2 / Fold change vs veh, TNKS2 / RFU, ZFP14 / Fold change vs veh, ZFP14 / RFU, ACTR2 / Fold change vs veh, ACTR2 / RFU, PPP3R1 / Fold change vs veh, PPP3R1 / RFU, PIK3R1 / Fold change vs veh, PIK3R1 / RFU, HNRNPA1 / Fold change vs veh, HNRNPA1 / RFU, RNF170 / Fold change vs veh, RNF170 / RFU, ZNF28 / Fold change vs veh, ZNF28 / RFU, RNGTT / Fold change vs veh, RNGTT / RFU, OGT / Fold change vs veh, OGT / RFU, BRD1 / Fold change vs veh, BRD1 / RFU, MARS / Fold change vs veh, MARS / RFU, ZNF655 / Fold change vs veh, ZNF655 / RFU, FAHD1 / Fold change vs veh, FAHD1 / RFU, BDP1 / Fold change vs veh, BDP1 / RFU, LRRCC1 / Fold change vs veh, LRRCC1 / RFU, ARID1A / Fold change vs veh, ARID1A / RFU, ZNF146 / Fold change vs veh, ZNF146 / RFU, ZNF330 / Fold change vs veh, ZNF330 / RFU, GPN3 / Fold change vs veh, GPN3 / RFU, C9orf123 / Fold change vs veh, C9orf123 / RFU, N4BP2L2 / Fold change vs veh, N4BP2L2 / RFU, ARFIP1 / Fold change vs veh, ARFIP1 / RFU, FAM179B / Fold change vs veh, FAM179B / RFU, BCL10 / Fold change vs veh, BCL10 / RFU, UHRF1BP1L / Fold change vs veh, UHRF1BP1L / RFU, BET1 / Fold change vs veh, BET1 / RFU, CNOT2 / Fold change vs veh, CNOT2 / RFU, ZNF268 / Fold change vs veh, ZNF268 / Fold change vs veh, ZNF507 / RFU, DGCR2 / Fold change vs veh, DGCR2 / RFU, WDSUB1 / Fold change vs veh, WDSUB1 / Fold change vs veh, HSP90B1 /// MIR3652 / RFU, ADSS / Fold change vs veh, ADSS / RFU, GK / Fold change vs veh, GK / RFU, ZNF148 / Fold change vs veh, ZNF148 / RFU, TAF9 / Fold change vs veh, TAF9 / RFU, SLC1A5 / Fold change vs veh, SLC1A5 / RFU, SLMO2 / Fold change vs veh, SLMO2 / RFU, ABCC4 / Fold change vs veh, ABCC4 / RFU, LOC101060439 /// RAP1B / Fold change vs veh, LOC101060439 /// RAP1B / RFU, RFX7 / Fold change vs veh, RFX7 / RFU, GTPBP10 / Fold change vs veh, GTPBP10 / RFU, CNEP1R1 / Fold change vs veh, CNEP1R1 / RFU, BIVM-ERCC5 /// ERCC5 / Fold change vs veh, BIVM-ERCC5 /// ERCC5 / RFU, ILF3 / Fold change vs veh, ILF3 / RFU 11762660_at / Fold change /veh 11762660_at / RFU VCAN (11757783_s_at) / Fold change /veh VCAN (11757783_s_at) / RFU DDX43 (11728927_at) / Fold change /veh DDX43 (11728927_at) / RFU KRT8 (11758188_x_at) / Fold change /veh KRT8 (11758188_x_at) / RFU NKD1 (11759106_at) / Fold change /veh NKD1 (11759106_at) / RFU SRD5A1 (11742802_a_at) / Fold change /veh SRD5A1 (11742802_a_at) / RFU TPSAB1 /// TPSB2 (11721975_s_at) / Fold change /veh TPSAB1 /// TPSB2 (11721975_s_at) / RFU GSTM3 (11746129_a_at) / Fold change /veh GSTM3 (11746129_a_at) / RFU IL23R (11737362_x_at) / Fold change /veh IL23R (11737362_x_at) / RFU TMEM51 (11727254_a_at) / Fold change /veh TMEM51 (11727254_a_at) / RFU PIWIL2 (11732686_x_at) / Fold change /veh PIWIL2 (11732686_x_at) / RFU ORM1 (11744905_x_at) / Fold change /veh ORM1 (11744905_x_at) / RFU CCDC152 (11743942_at) / Fold change /veh CCDC152 (11743942_at) / RFU ECM1 (11717891_a_at) / Fold change /veh ECM1 (11717891_a_at) / RFU IL23R (11748794_a_at) / Fold change /veh IL23R (11748794_a_at) / RFU TNFAIP8L3 (11732012_x_at) / Fold change /veh TNFAIP8L3 (11732012_x_at) / RFU MBOAT4 (11741988_at) / Fold change /veh MBOAT4 (11741988_at) / RFU 11764193_at / Fold change /veh 11764193_at / RFU TMEM53 (11763286_at) / Fold change /veh TMEM53 (11763286_at) / RFU MAGEB2 (11727129_at) / Fold change /veh MAGEB2 (11727129_at) / RFU TMEM200A (11744735_a_at) / Fold change /veh TMEM200A (11744735_a_at) / RFU CCDC152 (11751479_a_at) / Fold change /veh CCDC152 (11751479_a_at) / RFU FAM211A (11726209_a_at) / Fold change /veh FAM211A (11726209_a_at) / RFU RGS16 (11746705_a_at) / Fold change /veh RGS16 (11746705_a_at) / RFU VCAN (11755009_s_at) / Fold change /veh VCAN (11755009_s_at) / RFU RHOB (11743442_s_at) / Fold change /veh RHOB (11743442_s_at) / RFU RGS16 (11720943_a_at) / Fold change /veh RGS16 (11720943_a_at) / RFU RGS16 (11720944_at) / Fold change /veh RGS16 (11720944_at) / RFU, VPS4B / Fold change vs veh, VPS4B / RFU, CREB1 / Fold change vs veh, CREB1 / RFU, DNAJC13 / Fold change vs veh, DNAJC13 / RFU, GNAQ / Fold change vs veh, GNAQ / RFU, CDK5R1 / Fold change vs veh, CDK5R1 / RFU, ZRANB3 / Fold change vs veh, ZRANB3 / RFU, CUL4A / Fold change vs veh, CUL4A / RFU, CCNY / Fold change vs veh, CCNY / RFU, UFL1 / Fold change vs veh, UFL1 / RFU, COG3 / Fold change vs veh, COG3 / RFU, DIAPH2 / Fold change vs veh, DIAPH2 / RFU, SKA2 / Fold change vs veh, SKA2 / RFU, AFF3 / Fold change vs veh, AFF3 / RFU, LMF1 / Fold change vs veh, LMF1 / RFU, IPO11 / Fold change vs veh, IPO11 / RFU, DFFB / Fold change vs veh, DFFB / RFU, FOXP1 / Fold change vs veh, FOXP1 / RFU, CARD8 / Fold change vs veh, CARD8 / RFU, STRN3 / Fold change vs veh, STRN3 / RFU, ADK / Fold change vs veh, ADK / RFU, RASSF2 / Fold change vs veh, RASSF2 / RFU, WIPF1 / Fold change vs veh, WIPF1 / RFU, LARP1B / Fold change vs veh, LARP1B / RFU, RASA1 / Fold change vs veh, RASA1 / RFU, RB1 / Fold change vs veh, RB1 / RFU, PPFIA1 / Fold change vs veh, PPFIA1 / RFU, MAT2A / Fold change vs veh, MAT2A / RFU, CCT5 / Fold change vs veh, CCT5 / RFU, WDR92 / Fold change vs veh, WDR92 / RFU, CUX1 / Fold change vs veh, CUX1 / RFU, TTC7A / Fold change vs veh, TTC7A / RFU, TMEM135 / Fold change vs veh, TMEM135 / RFU, DEPTOR / Fold change vs veh, DEPTOR / RFU, CPM / Fold change vs veh, CPM / RFU, DNAJB6 / Fold change vs veh, DNAJB6 / RFU, CACNA2D3 / Fold change vs veh, CACNA2D3 / RFU, DTX4 / Fold change vs veh, DTX4 / RFU, TFCP2 / Fold change vs veh, TFCP2 / RFU, GMCL1 /// GMCL1P1 / Fold change vs veh, GMCL1 /// GMCL1P1 / RFU, AEBP2 / Fold change vs veh, AEBP2 / RFU, SNHG1 /// SNORD22 /// SNORD25 /// SNORD26 /// SNORD27 /// SNORD28 /// SNORD29 /// SNORD31 / Fold change vs veh, SNHG1 /// SNORD22 /// SNORD25 /// SNORD26 /// SNORD27 /// SNORD28 /// SNORD29 /// SNORD31 / Fold change (Aza/veh), C12orf56 (ProbeSet 11735607_a_at) / Fold change (ACY-1035/veh), C12orf56 (ProbeSet 11735607_a_at) / Fold change (Aza/veh), FGFR1OP (ProbeSet 11751329_s_at) / Fold change (ACY-1035/veh), FGFR1OP (ProbeSet 11751329_s_at) / Fold change (Aza/veh), VPS36 (ProbeSet 11739960_a_at) / Fold change (ACY-1035/veh), VPS36 (ProbeSet 11739960_a_at) / RFU SYPL1 (11715823_x_at) / Fold change /veh SYPL1 (11715823_x_at) / RFU IGFBP7 (11715501_s_at) / Fold change /veh IGFBP7 (11715501_s_at) / RFU REEP3 (11722064_at) / Fold change /veh REEP3 (11722064_at) / RFU IGLL1 (11728026_x_at) / Fold change /veh IGLL1 (11728026_x_at): dose or concentration left out as unconfirmed
# Conditions: MV-4-11 cells, 48 hours
smiles,measurement,value
Nc1ncn([C@@H]2O[C@H](CO)[C@@H](O)[C@H]2O)c(=O)n1 [azacitidine],RFU CASKIN2 (11723855_a_at),31.47 RFU
